For data set [1] the following is noted: cited from earlier work.
Data set [2] can be described thus: Mucosal antibody responses after MF59-adjuvanted immunisation. The class given is in vivo, mice. As for the experimental part: To assess antibody responses mice were injected with 3 doses of either ovalbumin or H56 (a […] antigen) on days 0, 21, and 42, adjuvanted with MF59. The day before and after each immunization one group of mice were given retinoic acid whereas control mice received a plain vehicle instead. Serum IgG and vaginal wash IgA antibody responses were assessed at day 56. IgA-secreting cells were also measured in the bone marrow.

Data set [3] has as its system CCR9 on CD4+ T-cells expressing the DO-11.10 T-cell receptor. Kind of data set: Adoptive T-cell transfer with fingolimod: CCR9 expression and proliferation of DO-11.10 CD4+ T-cells in draining lymph nodes. It is filed as in vivo, mice. Conditions: FACS, MF59-adjuvanted ovalbumin plus retinoic acid versus MF59 plus plain vehicle. As for the experimental part:
Reference describes experimental protocols for studying the homing of T-cells in mice who receive retinoic acid. In brief, T-cells specific for test antigens (in the present case, ovalbumin) are adoptively transferred into mice and their behaviour in response to specific treatments is studied. This general experimental procedure was used to assess the effect of MF59 and retinoic acid on CCR9 expression in T-cells, and on their in vivo migration.
Mice were injected intravenously with 2×10^6 CD4^+ T-cells which react to ovalbumin peptides (DO-11.10 cells). These cells were labelled with CFSE before being administered. At around the same time they were given either retinoic acid or a plain vehicle. The next day they received MF59-adjuvanted ovalbumin, and the next day they again received RA or plain vehicle, plus fingolimod (which blocks the egress of lymphocytes from lymph nodes). A few days later their draining lymph nodes were drained and CD4^+ T-cells expressing the DO-11.10 T-cell receptor were tested for CCR9 expression by FACS. The CFSE label was used to trace cell proliferation.

On to `CC1=C(/C=C/C(C)=C/C=C/C(C)=C/C(=O)O)C(C)(C)CCC1` [retinoic acid], for which, in data set [1], the solubility in oil entry is recorded as “soluble” and the solubility in water result is “sparingly soluble”. In data set [2] (bone marrow, H56 adjuvanted with MF59, retinoic acid versus plain vehicle), the “proportion of IgA-secreting cells, fold higher, H56” value is listed as “around 12 ×”. Moreover, the “proportion of IgA-secreting cells, fold higher, ovalbumin” value in data set [2] (bone marrow, ovalbumin adjuvanted with MF59, retinoic acid versus plain vehicle) is given as “about 7 ×”. The “antigen-specific IgA titres in vaginal washes” value in data set [2] (day 56, 3 MF59-adjuvanted doses, plain vehicle essentially zero) is “about 1250”. The “number of CCR9-positive cells, fold higher” value in data set [3] is “about 5 ×”.

These data come from US11197826B2, “Oil-in-water emulsions including retinoic acid” (NOVARTIS AG, priority 2015, dated 2021).
